From article PMC8868285, “Pharmacological Inhibition of Epac1 Averts Ferroptosis Cell Death by Preserving Mitochondrial Integrity” (Antioxidants, 2022)
pIC50: −log10 of the molar value.

How the values were obtained:
[1] = system: retinal glial cells (RGC); design: method as in PMID 31918438; conditions: cited from earlier work
HT-22 cells [2] = assay: MTT cell viability assay; format: cell-based, mouse
Protocol: (§1) Cell viability and metabolic activity of cells was first assessed using a colorimetric 3-(4,5-dimethylthiazol-2-yl)-2,5-diphenyltetrazolium Bromide (MTT) (Sigma–Aldrich Chemie GmbH, Steinheim, Germany, #M5655) reduction assay. Cells in a 96-well plate format (8–10,000 cells/well) were incubated with the MTT solution (0.5 mg/mL) for a maximum of 1 h at 37 °C. Afterward, the MTT-containing solution was entirely removed, and the 96-well plate was incubated at −80 °C for at least 2 h. To allow formazan to uniformly disperse in the medium, dimethyl sulfoxide (DMSO) (Sigma–Aldrich Chemie GmbH, Steinheim, Germany, #D8418, Lot# SHBH9942) was administered to the cells for 1 h at 37 °C with continuous shaking. The absorbance values were determined by Synergy™H1 (Bad Friedrichshall, Germany) Hybrid MultiMode Reader at 570 nm with a 630 nm reference filter. The absorbance values of untreated healthy cells or cells treated with DMSO 1% (used as a solvent for various pharmacological applications) were regarded as 100% of cell viability. […] HT-22 cells were treated with the following conditions: control condition (solvent), drug of interest, erastin, and pre- or co-treatment with erastin and drug of interest. Cells as appropriate were pre-treated for 30 min with the drug of interest before the addition of erastin. xCELLigence ®RTCA MP system (ACEA BIO, Amsterdam, The Netherlands) was used to measure cell impedance in real time. The xCELLigence ®RTCA MP system is a label-free real-time cell-based assay, suitable for continuous monitoring of alteration/modifications of the morphology of cells. Continuous cell monitoring was performed by using an E-plate 96 and the cellular impedance or cell resistance was assessed every 15 min for 24 h.

[3] = system: secondary brain injury induced by intracerebral hemorrhage; design: method as in PMID 30607901; conditions: cited from earlier work
HT-22 cells [4] = assay: Extracellular flux analysis (Seahorse), oxygen consumption rate; format: cell-based, mouse
Protocol: Cellular Oxygen Consumption Rate (OCR) was measured by using an XFe96 extracellular flux analyzer (Seahorse Bioscience, Billerica, MA, USA) which also entailed the mitochondrial stress test as described previously. HT-22 cells (10,000 cells/well) were seeded onto the XFe96-well cell culture microplate and incubated at 37 °C, 5% CO2. 24 h before the assay, the growth medium was replaced with a fresh medium containing either DMSO 1%, erastin 1 µM, CE3F4 alone, ESI-05 alone or a co-treatment of erastin with either CE3F4 or ESI-05. Cells in 180 μL of assay non-buffered DMEM medium supplemented with 2 mM glutamine, 4.5 g/L glucose and 1 mM pyruvate, pH 7.35 were incubated for 1 h in a CO2 free incubator at 37 °C. Basal respiration was measured before injecting the inhibitors that included; oligomycin (4 μM; port A)—an ATP synthase inhibitor; 2,4-dinitrophenol (DNP) (Sigma–Aldrich Chemie GmbH, Steinheim, Germany, #34334) (50 μM; port B)—a mitochondrial oxidative phosphorylation uncoupler; and rotenone (Sigma–Aldrich Chemie GmbH, Steinheim, Germany, #R8875) together with antimycin A (Sigma–Aldrich Chemie GmbH, Steinheim, Germany, #A8674) 0.1 μM and 1 μM; port C)—complex I and complex III inhibitors. By using the BCA assay, OCR measurements were normalized to the protein amount in every well. Three independent experiments with six wells per condition were performed, and a one-way ANOVA test was used to determine statistical significance among different groups.

traumatic brain injury = system: traumatic brain injury; design: method as in PMID 29740274; conditions: cited from earlier work
Epac2 = conditions: ESI-05, Epac2 inhibitor; cited from earlier work
HT-22 cells [5] = assay: Brightfield images of cell morphology; format: cell-based, mouse
[6] = system: isolated mitochondria from HT-22 cells; assay: High-resolution respirometry (Oroboros) of isolated mitochondria; design: species or system mouse
Protocol: Mitochondria were isolated from harvested HT-22 cells (4–8 × 10^7 cultivated in T75 flasks) using a semi-automated pump-controlled cell rupture system (PCC) (0.71 mL/min) with syringes (SGE, Trajan© Scientific, Ringwood, Australia) attached to a cell homogenizer (Isobiotech, EMBL, Heidelberg, Germany) (bead size of 10 μm suitable for HT-22 cells) and superimposed on a pump (ProSense B.V, Oosterhout, The Netherlands, #NE1000). Collected samples were centrifuged at 800 rpm for 10 min at 4 °C. The supernatant was further centrifuged at 9000× g for 10 min at 4 °C. The resulting pellet was the crude mitochondria. Finally, the mitochondria were suspended in an isolation buffer (HEPES 20 mM, sucrose 250 mM EDTA 3 mM, pH 7.5) for subsequent experiments. The whole procedure was executed on ice.
The protein concentration of isolated mitochondria was determined using the Pierce™ BCA Protein Assay Kit (Pierce™ BCA Protein Assay Kit, Thermo Scientific, Rockford, IL, USA, #23225). Respiration of the isolated mitochondria from HT-22 cells was analyzed using the high-resolution respirometry oxygraph O2K (Oroboros Systems, Innsbruck, Austria). The isolated mitochondria (200 μg) prepared as previously described, were treated with either CE3F4, ESI-05, ethanol, or DMSO as appropriate for 25 min, followed by mitochondrial respiration measurements. Mitochondrial state 1 was determined by continuous stirring at 750 rpm in 1 mL of MiR05 buffer (MgCl2 3 mM, lactobionic acid 60 mM, EGTA 0.5 mM taurine 20 mM, KH2PO4 10 mM, D-Sucrose 110 mM, HEPES 20 mM, BSA, essential fatty acid-free1 g/L, pH adjusted to 7.4). DatLab software (Oroboros Systems, Innsbruck, Austria) was used to record real-time oxygen flux per tissue mass (pmol O2. s^−1 × mg^−1) at 37 °C and to perform oxygen polarography. States were described as, State 2: a non-phosphorylating respiration state which was assessed by addition of complex-I linked substrates, 5 mM pyruvate (Sigma–Aldrich Chemie GmbH, Steinheim, Germany #P-2256), and 2 mM malate (Sigma–Aldrich Chemie GmbH, Steinheim, Germany, #374318); State 3: the oxidative-phosphorylation capacity (OXPHOS) state, of complex-I linked activity or basal respiration was achieved by adding a saturating concentration of 0.8 mM ADP (Sigma–Aldrich Chemie GmbH, Steinheim, Germany, #A5285), this allowed for calculation of ADP-coupled repiration; State 4: Achieved by subsequent addition of oligomycin 0.1 μM/mL (Sigma–Aldrich Chemie GmbH, Steinheim, Germany, #O4876) following state 3, oligomycin blocks the ATP-synthase, thereby inhibiting proton passage; State 3U: Was assessed by incremental steps of 1 μM addition of FCCP—theprotonophore carbonyl cyanide 4-(trifluoromethoxy) phenylhydrazone (Sigma–Aldrich Chemie GmbH, Steinheim, Germany, #C2920), this allowed the calculation of the reserve capacity of the Electron Transport Chain (ETC); Finally, sodium dithionite (DTT, Sigma–Aldrich Chemie GmbH, Steinheim, Germany, #15,795-3) was added to reduce all residual oxygen that was present in the chamber and to calibrate the oxygen content in the chamber. The O2 slope (pmol × (mL/s)) of isolated mitochondria was the oxygen concentration and also the initial derivate of the oxygen concentration—a derivative of oxygen consumption. Measurements were recorded in intervals of 2 s by using a background correction after calibration of the polarographic oxygen sensors.

Epac = system: Epac; design: method as in BioLog, Cat.No. C 041; conditions: no literature reference printed; ref BioLog, Cat.No. C 041; cited from earlier work
HT-22 cells [7] = assay: Mitochondrial morphology (MitoTracker Deep Red, categories I-III); format: cell-based, mouse; conditions: erastin 1 μM alone
Protocol: Mitochondrial morphology was assessed using imaging of HT-22 cells stained with MitoTracker™Deep Red FM (Invitrogen, Oregon City, OR, USA, #M22426). Cells were treated with either erastin 1 µM, CE3F4 100 µM, or co-treated with erastin 1 µM and CE3F4 100 μM for 18 h. After the treatment, cells were incubated with 200 nM MitoTracker™Deep Red FM for 30 min at 37 °C. Untreated cells were included as controls. 4% paraformaldehyde (PFA) was used for fixation and detection of the MitoTracker fluorescence was achieved by 620 nm (excitation) and 700 ± 75 nm (detection). 500 cells per condition were counted and grouped into three different categories, based on their mitochondrial morphology/shape. The analysis and categorization of mitochondria was done by an investigator without previous knowledge of the various experimental conditions. Category I included healthy cells with mitochondria that form an elongated tubular network that is distributed equally throughout the cytosol. It could also include short mitochondria, but distributed in the cytosol. On the other hand, Category II included cells which contained large, and fragmented/granulated mitochondria around the nucleus. […] Category III represented damaged and dying cells with observed small rounded mitochondria of varying sizes and in proximity to the nucleus.. At least three independent experiments were performed.

HT-22 cells [8] = assay: Soluble ROS, CM-DCF FACS; format: cell-based, mouse
Protocol: Soluble ROS was evaluated by CM-DCF fluorescent dye (Invitrogen, Oregon City, OR, USA). CM-DCF passively diffuses into cells, and reacts with glutathione and other thiols following cleavage by intracellular esterases, which in turn exposes the thiol-reactive chloromethyl group. The oxidation that follows results in a fluorescent adduct that is ensnared within the cell. The higher the fluorescence, the more cellular ROS is produced in the cells.

HT-22 cells [9] = assay: Lipid peroxidation, BODIPY FACS; conditions: erastin 1 μM alone, 4 h
Protocol: (§2) Flow cytometry analysis using the CytoFLEXS benchtop flow cytometer (Beckman Coulter Life Sciences, Indianapolis, IN, USA) was used to evaluate intracellular parameters that are associated with not only oxidative stress but also mitochondrial dysfunction, and cell death. HT-22 cells (40,000 cells/well) seeded in 24-well plates were treated with various conditions. Treatment groups included: control condition (DMSO 1%), erastin 1 µM or 1.5 µM, CE3F4 100 µM, and co-treatment of erastin and CE3F4. Three separate wells were analyzed for each condition and the same number of counts (10,000/well) were measured by flow cytometry. At least three independent experiments were performed, and the Kaluza Analysis 1.5 software was employed for quantification of data.
The staining dye BODIPY 2 μM (Invitrogen, Karlsruhe, Germany, # D3861, Lot # 1890330) was used to estimate lipid peroxidation. Erastin treatment was done for 4 h. HT-22 cells were then stained for 30 min at RT, followed by a one-time wash with PBS and finally analyzed. Fluorescence excitation and detection were done at 488 nm and 530 nm respectively.

HT-22 cells [10] = assay: xCELLigence real-time cell impedance measurement; format: cell-based, mouse; conditions: erastin alone, dose response
Protocol: as §1, with “Cells as appropriate were pre-treated for 30 min with the drug of interest before the addition of erastin. xCELLigence ®RTCA MP system (ACEA BIO, Amsterdam, The Netherlands) was used to measure cell impedance in real time. The xCELLigence ®RTCA MP system is a label-free real-time cell-based assay, suitable for continuous monitoring of alteration/modifications of the morphology of cells.” left out

HT-22 cells [11] = assay: Cell death assessment, FACS analysis of PI staining; conditions: erastin 1 μM alone
Protocol: as §2
The amount of cell death after stimulation with erastin for 16–17 h was assessed by incubating trypsonized HT-22 cell suspension with propidium iodide (PI) (Invitrogen, Oregon City, OR, USA, #V13242, Lot #2008168) in a binding buffer. Incubation with the dye was for 30 min at RT. Fluorescence was detected at 494/518 and 535/617 for FITC and PI respectively.

HT-22 cells [12] = assay: Mitochondrial superoxide, MitoSOX FACS
Protocol: as §2
MitoSOX dye (Invitrogen, Oregon City, OR, USA, #M36008, Lot#1924466) was used to evaluate mitochondrial ROS. The MitoSOX dye is able to permeate live cells and also selectively target mitochondria where it is swiftly oxidized by superoxides but not by other reactive oxygen species. […] Incubation of HT-22 cells with MitoSOX™ 1.25 μM dye was done for 30 min at 37 °C. Fluorescence excitation and detection were done at 488 nm and 690/50 nm respectively.

HT-22 cells [13] = assay: Mitochondrial membrane potential, TMRE FACS
Protocol: as §2
Staining with TMRE™ dye (tetramethylrhodamine-ethyl ester; Invitrogen, Oregon City, OR, USA, #T669) was used to determine loss of mitochondrial membrane potential (MMP) (ΔΨm). […] Collected cells were incubated for 20 min with TMRE 0.2 μM at 37 °C. Fluorescence excitation and detection were done at 488 nm 690/50 nm respectively.

Structure (SMILES): CC(C)(C)c1cc(C(=O)/C(C#N)=N/Nc2cccc(Cl)c2)no1 [ESI-09]
- effect on RGC [1]: neuroprotective
- neuroprotection against erastin-induced ferroptosis (MTT) (HT-22 cells [2]; ESI-09, 30 μM): dose-dependent neuroprotection

Structure (SMILES): CO[C@@H]1[C@@H]2OP(=O)(OCOC(C)=O)OC[C@H]2O[C@H]1n1c(Sc2ccc(Cl)cc2)nc2c(N)ncnc21 (stereo partly shown) [8-pCPT-2-O-Me-cAMP-AM]
- effect on RGC [1]: neurotoxic effects

Structure (SMILES): Cc1ccc(S(=O)(=O)c2c(C)cc(C)cc2C)cc1 [ESI-05]
- neuroprotection against erastin-induced ferroptosis (MTT) (HT-22 cells [2]; 100 μM ESI-05 with lower concentrations of erastin): did not mediate neuroprotection
- neuroprotection against erastin-induced ferroptosis (MTT) (HT-22 cells [2]; ESI-05 3–30 μM): did not mediate neuroprotection
- secondary brain injury induced by intracerebral hemorrhage [3]: suppressed secondary brain injury
- mitochondrial respiration (OCR) (HT-22 cells [4]; 30 μM ESI-05 + erastin 1 μM vs erastin alone): did not induce any significant difference
- neural cell apoptosis after traumatic brain injury (traumatic brain injury): decreased neural cell apoptosis
- neurological deficits after traumatic brain injury (traumatic brain injury): improved other neurological deficits
- pIC50 (Epac2): 6.40
- neuroprotection against erastin-induced ferroptosis (bright-field microscopy images) (HT-22 cells [5]; ESI-05 30 μM + erastin 1 μM): did not mediate neuroprotection
- respiration rate after inhibition of ETC complex V (state 4) ([6]; 10 μM ESI-05): significantly increased
- mitochondrial respiration ([6]; ESI-05 30 μM): does not affect mitochondria respiration

Structure (SMILES): CO[C@@H]1[C@@H]2OP(=O)(O)OC[C@H]2O[C@H]1n1c(Sc2ccc(Cl)cc2)nc2c(N)ncnc21 [8-PCPT-2-O-Me-cAMP]
- AC50 (Epac): 1.8 µM
- neuroprotection against erastin-induced ferroptosis (MTT) (HT-22 cells [2]; 8-pCPT 10–100 μM): did not mediate neuroprotection

Structure (SMILES): CCOc1ccccc1-n1c(C(C)N2CCN(C(=O)COc3ccc(Cl)cc3)CC2)nc2ccccc2c1=O (stereo not shown) [erastin]
- mitochondrial morphology (HT-22 cells [7]): induced pronounced mitochondrial fragmentation
- ROS level (CM-DCF) (HT-22 cells [8]; erastin 1 μM alone): significantly increased
- ROS level (CM-DCF) (HT-22 cells [8]; erastin 1.5 μM alone): significantly increased
- cell death (MTT cell viability) (HT-22 cells [2]; erastin alone, dose response): dose-dependent cell death
- mitochondrial respiration (OCR) (HT-22 cells [4]; erastin 1 μM vs untreated or solvent-treated controls): significant decrease in mitochondrial respiration
- lipid peroxidation (HT-22 cells [9]): increased
- cell death (real-time cell impedance) (HT-22 cells [10]): dose-dependent cell death
- cell death (PI staining) (HT-22 cells [11]): augmented cell death
- mitochondrial superoxide levels (HT-22 cells [12]; erastin 1 μM alone): significant increase and shift towards high ROS levels
- mitochondrial superoxide levels (HT-22 cells [12]; erastin 1.5 μM alone): significant increase and shift towards high ROS levels
- cell morphology (HT-22 cells [5]; erastin 1 μM alone): marked alteration in cell morphology
- mitochondrial membrane potential (ΔΨm) (HT-22 cells [13]; erastin 1 μM alone): significant loss of ΔΨm
- mitochondrial membrane potential (ΔΨm) (HT-22 cells [13]; erastin 1.5 μM alone): significant loss of ΔΨm
